Data published in patent US20060188501A1, “Diagnostic and therapeutic agents for rheumatoid arthritis” (Kyowa Hakko Kogyo Co., Ltd., priority 2000, published 2006).

System: Synoviocytes derived from a rheumatoid arthritis patient
Assay: Growth of synoviocytes measured by MTT assay
Assay type: cell-based, human
Conditions: genistein 1.5, 3, 6, 12.5 and 25 μg/ml, 7 days culture, FIG. 2
Protocol: That is, synoviocytes obtained from a rheumatoid arthritis patient by surgery were minced, followed by enzyme treatment in RPMI1640 medium containing collagenase (4 mg/ml) at 37° C. for 4 hours to loosen the cells. The obtained cells were cultured in a growth medium (RPMI1640 containing 10% fetal calf serum) in a humidified CO2 incubator (5% CO2), with replacement of the growth medium at intervals of 3 to 4 days. When the cells grew to be subconfluent, the cells were subcultured at the ratio of 1:2 to 1:4 (that is, the cells were collected, transferred into other culture flasks in 1/2 to 1/4 portions and cultured in a fresh growth medium). Subculturing was repeated for 7 to 15 passages and the resulting cells were used in the following experiments.
The growth of synoviocytes was measured by the assay using MTT [3,(4,5-dimethylthiazol-2-yl)2,5-diphenyl-tetrazolium bromide]
Synoviocytes derived from a rheumatoid arthritis patient which were prepared in the same manner as in Example 1 were seeded on a 96-well microplate in an amount of 5×10^3 cells/well and precultured in the growth medium at 37° C. overnight. […] Then, 100 μl of dimethyl sulfoxide was added to dissolve the fomazan complex and the absorbance at the wavelength of 590 nm was measured with 96-well multiscanner Immno-Mini (Japan Inter Med) as the degree of cell growth. […]

O=c1c(-c2ccc(O)cc2)coc2cc(O)cc(O)c12 [genistein]
growth of synoviocytes (absorbance at 590 nm, MTT): inhibited in a manner dependent on the genistein concentration
